In patent US20170119020A1, “METHOD OF FEEDING AN ANIMAL” (CARGILL, INCORPORATED, priority 2014, published 2017):
Marks after values point to notes of the source that are not given here.

Columns and labels:
sows and piglets [1] = experiment: Total antioxidant status (TAS) in serum of sows and piglets (Example 10); format: in vivo, pig; details: for Total antioxidant status (TAS) in serum of piglets: piglets at 21 days
Excerpt: (§1) The performance following criteria were monitored during the trial: (i) Sows response criteria (actual parity, farrowing rate, culled sows—number and reasons, wean-to-mating interval, farrowing rate in the next cycle); (ii) litter response criteria (number of piglets, total, alive, stillborn, mummies; weight of piglets and litters; survival). The following biochemical (blood) criteria were monitored during the trial for the sows (mating, farrowing and weaning), piglets 21st day: (i) glutathione peroxidase (GPx) activity; (ii) superoxide dismutase (SOD) activity; (iii) total antioxidant status (TAS); (iv) vitamin E content; (v) vitamin A content.
(§2) To determine the oxidative status, the blood samples were collected from sows and piglets into tubes with lithium anticoagulant—received whole blood for analysis. At the same time blood samples were taken for blood clot. They were centrifuged (1500 rpm, 15 Temp. 4° C.) and obtained serum was pipetted into separate tubes.
(§3) In studies of oxidative status of sows and piglets were used suitable to each of the indicators, the reagent kits from Sigma-Aldrich. Determination was made in accordance with the descriptions of the rules and procedures specified by the manufacturer.
(§4) The content of the TAS (total antioxidant status) were determined using the Antioxidant assay kit (Cat. No CS0790), the activity of SOD (superoxide dismutase) was determined using SOD determination kit 19160, the activity of GPx (glutathione Peroxide assai Cellular Activity Kit) Cat. No CGP1. The content of vitamins A and E by McMurray and Blanchflower 1979 (Journal of Chromatography 178, 525-531.). TAS
Serum samples (10 ul) in duplicate were incubated at room temperature for 5 minutes with the working solution of ABTS (2,2-azino-bis (3-ethylbenzthiazoline-6-sulfonic acid) (150 pl) and the solution with myoglobin (20 pl). Simultaneously the calibration curve was performed based on serial dilutions of Trolox equivalent in the range of 0.015 to 0.42 mM (mmol).
The formed a ferryl radical from myoglobin and hydrogen peroxide causes oxidation of ABTS and production of radical cation ABTS*. The resulting chromogen has a blue-green color. In the presence of antioxidants the radical cation is suppressed to an extent dependent on the activity of the antioxidant and the color intensity is decreased proportionally. The color was measured with a spectrophotometer at a wavelength of 405 nm.

[2] = test system: Cobb500 fast-feathering male broilers; experiment: Grow out of offspring, performance till slaughter age (Example 3); format: in vivo, chicken
[3] = test system: sows (PIC) and their piglets; experiment: Litter performance (Example 10); format: in vivo, pig; details: for Mortality: piglets until weaning
Protocol: Testing was performed on sows (primiparous and multiparous) of the same type of crossing (PIC). The trial comprised 52 sows in a system of continuous farrowing. Each group was consist of 13 animals. The trial ran from day 1 of pregnancy to remating in the next cycle.
Each group was fed with complete diets for pregnant sows (0-90 d) and for lactation sows (90 d of gestation-weaning) with different inclusion of vitamin E and tested product (see TABLE 43A) and lactation diets (see TABLE 43B)
as §1

sows and piglets [4] = experiment: Glutathione peroxidase (GPx) activity in blood of sows and piglets (Example 10); format: in vivo, pig; details: for Activity of glutathione peroxidase (GPx) in blood of piglets: piglets at 21 days
Excerpt: as §1, §2, §3, §4
Whole blood samples (blood collection from animals to tubes with lithium anticoagulant) in duplicate (10 pl) was added to […] of buffer (pH 8), mixed (vortex—10′), then added 10 pl of a 70% aqueous solution of tert-butyl Hydroperoxide, mixed (by inversion) and the absorbance was measured immediately in a spectrophotometer at a wavelength of 340 nm. After 1 minute the measurement was repeated. Simultaneously blank samples (reagent) were performed and a calibration curve based on GPx serial dilutions in the range of 20 to 50 U/ml. The decrease in NADPH absorbance (during 1 minute) measured at 340 nm during the oxidation of NADPH to NADP+ is indicative of GPx activity.

[5] = Breeding, Group 2: vitamin E 50/75 mg/kg diet
[6] = Breeding, Group 3: vitamin E 100/150 mg/kg diet
[7] = Farrowing, Group 2: vitamin E 50/75 mg/kg diet
[8] = Farrowing, Group 3: vitamin E 100/150 mg/kg diet
[9] = Weaning, Group 2: vitamin E 50/75 mg/kg diet
[10] = Weaning, Group 3: vitamin E 100/150 mg/kg diet
[11] = Group 2: vitamin E 50/75 mg/kg sow diet
[12] = Group 3: vitamin E 100/150 mg/kg sow diet
[13] = 1st day, Group 2: vitamin E 50/75 mg/kg sow diet
[14] = 1st day, Group 3: vitamin E 100/150 mg/kg sow diet
[15] = Weaning, Group 2: vitamin E 50/75 mg/kg sow diet
[16] = Weaning, Group 3: vitamin E 100/150 mg/kg sow diet

SMILES: Cc1c(C)c2c(c(C)c1O)CCC(C)(CCCC(C)CCCC(C)CCCC(C)C)O2 (racemic) [Vitamin E, DL-α-tocopherol]
- Total antioxidant status (TAS) in serum of sows (sows and piglets [1]; [5]): 1.26 mmol/L
- Total antioxidant status (TAS) in serum of sows (sows and piglets [1]; [6]): 1.29 mmol/L
- Total antioxidant status (TAS) in serum of sows (sows and piglets [1]; [7]): 1.18^a mmol/L
- Total antioxidant status (TAS) in serum of sows (sows and piglets [1]; [8]): 1.19^a mmol/L
- Total antioxidant status (TAS) in serum of sows (sows and piglets [1]; [9]): 1.18^B mmol/L
- Total antioxidant status (TAS) in serum of sows (sows and piglets [1]; [10]): 1.20^Ba mmol/L
- Total antioxidant status (TAS) in serum of piglets (sows and piglets [1]; [11]): 1.16^B mmol/L
- Total antioxidant status (TAS) in serum of piglets (sows and piglets [1]; [12]): 1.18^A mmol/L
- start weight of the chickens ([2]; after placement in cages, day 0): 40.9 g
- F:G corrected for BW ([2]; corrected to 2,181 gram body weight at 35 days of age): 1.627
- ADFI 0-3 d ([2]; offspring): 10.1 g
- ADFI 0-14 d ([2]; offspring): 37.1 g
- ADFI 0-28 d ([2]; offspring): 82.1 g
- ADFI 0-35 d ([2]; offspring): 101.7 g
- ADFI 3-14 d ([2]; offspring): 44.5 g
- ADFI 14-35 ([2]; offspring): 144.8 g
- ADFI 14-28 d ([2]; offspring): 127.0 g
- ADFI 28-35 d ([2]; offspring): 180.3 g
- ADG 0-3 d ([2]; offspring): 9.5 g
- ADG 0-14 d ([2]; offspring): 29.3 g
- ADG 0-28 d ([2]; offspring): 54.4 g
- ADG 0-35 d ([2]; offspring): 62.2 g
- ADG 3-14 d ([2]; offspring): 34.7 g
- ADG 14-35 ([2]; offspring): 84.2 g
- ADG 14-28 d ([2]; offspring): 79.6 g
- ADG 28-35 d ([2]; offspring): 93.6 g
- BW 0 d ([2]; offspring): 40.9 g
- BW 3 d ([2]; offspring): 69.4 g
- BW 14 d ([2]; offspring): 451 g
- BW 35 d ([2]; offspring): 2219 g
- F:G 0-14 d ([2]; offspring): 1.268
- F:G 0-28 d ([2]; offspring): 1.509
- F:G 0-35 d ([2]; offspring): 1.635
- F:G 3-14 d ([2]; offspring): 1.283
- F:G 14-28 d ([2]; offspring): 1.598
- F:G 14-35 d ([2]; offspring): 1.720
- F:G 28-35 d ([2]; offspring): 1.929
- EPI excl ([2]; offspring, 35 d): 388
- EPI, excl mortality ([2]; offspring, 35 d): 369
- Mortality ([2]; offspring, breeder diet 80 ppm vitamin E or 40 ppm vitamin E+40 ppm PROVIOX 50): 4.6%
- F:G 0-3 d ([2]; offspring, kg feed intake:kg gain): 1.088
- Litter weight [3, 13]: 18.50^a kg
- Number of piglets per litter, Born alive [3, 13]: 12.82
- Number of piglets per litter, Mummies [3, 13]: 0.18
- Number of piglets per litter, Stillborn [3, 13]: 1.36
- Number of piglets per litter, Weak [3, 13]: 0.36
- Piglet weight [3, 13]: 1.44 kg
- Litter weight [3, 14]: 19.07^a kg
- Number of piglets per litter, Born alive [3, 14]: 13.18
- Number of piglets per litter, Mummies [3, 14]: 0.20
- Number of piglets per litter, Stillborn [3, 14]: 1.09
- Number of piglets per litter, Weak [3, 14]: 0.40
- Piglet weight [3, 14]: 1.45 kg
- Litter weight [3, 15]: 83.96^b kg
- Piglet weight [3, 15]: 7.16 kg
- Weaning Number of piglets per litter [3, 15]: 11.73
- Litter weight [3, 16]: 84.33^b kg
- Piglet weight [3, 16]: 7.31 kg
- Weaning Number of piglets per litter [3, 16]: 11.82
- Mortality [3, 11]: 8.37%
- Mortality [3, 12]: 10.64%
- Activity of glutathione peroxidase (GPx) in blood of sows (sows and piglets [4]; [5]): 37.73 U/ml
- Activity of glutathione peroxidase (GPx) in blood of sows (sows and piglets [4]; [6]): 38.85 U/ml
- Activity of glutathione peroxidase (GPx) in blood of sows (sows and piglets [4]; [7]): 32.77^C U/ml
- Activity of glutathione peroxidase (GPx) in blood of sows (sows and piglets [4]; [8]): 37.64^B U/ml
- Activity of glutathione peroxidase (GPx) in blood of sows (sows and piglets [4]; [9]): 34.78^C U/ml
- Activity of glutathione peroxidase (GPx) in blood of sows (sows and piglets [4]; [10]): 36.48^B U/ml
- Activity of glutathione peroxidase (GPx) in blood of piglets (sows and piglets [4]; [11]): 29.12^B U/ml
- Activity of glutathione peroxidase (GPx) in blood of piglets (sows and piglets [4]; [12]): 29.91^B U/ml
